Source: ChEMBL document CHEMBL4145590, “SAR Studies of N-[2-(1H-Tetrazol-5-yl)phenyl]benzamide Derivatives as Potent G Protein-Coupled Receptor-35 Agonists” (ACS Med Chem Lett, 2018)
Activity calls are given as the source filed them. The calls are words filed in the database; no cut-off is given here.

Key:
[1] = target: T1, G-protein coupled receptor 35 (Homo sapiens, UniProt Q9HC97); assay: Agonist activity at GPR35 in human HT-29 cells by dynamic mass redistribution assay; type: functional, cell-based
[2] = target: T1, G-protein coupled receptor 35; assay: Desensitization of GPR35 in human HT-29 cells assessed as inhibition of zaprinast-induced dynamic mass redistribution pretreated for 1 hr followed by zaprinast stimulation; type: functional, cell-based
[3] = target: T1, G-protein coupled receptor 35; assay: Agonist activity at GPR35 in human HT-29 cells in presence of GPR35 antagonist ML-145 by dynamic mass redistribution assay; type: functional, cell-based
[4] = target: T1, G-protein coupled receptor 35; assay: Agonist activity at GPR35 in human HT-29 cells assessed as increase in ERK1/2 phosphorylation at 0.1 to 1 uM pretreated for 10 mins followed by GPR35 antagonist ML-145 addition measured after 5 mins by Western blot analysis; type: functional, cell-based
[5] = target: T1, G-protein coupled receptor 35; assay: Agonist activity at GPR35 in human HT-29 cells assessed as increase in ERK1/2 phosphorylation at 0.1 to 1 uM after 15 mins by Western blot analysis; type: functional, cell-based
[6] = target: G protein-coupled receptor GPR35 (Rattus norvegicus, UniProt Q33BM1); assay: Agonist activity at recombinant rat N-terminal FLAG/eYFP-fused GPR35 expressed in HEK293 cells assessed as induction of beta-arrestin recruitment by BRET assay; type: functional, cell-based
[7] = target: T1, G-protein coupled receptor 35; assay: Agonist activity at recombinant human N-terminal FLAG/eYFP-fused GPR35a expressed in CHOK1 cells assessed as induction of beta-arrestin recruitment by path hunter assay; type: cell-based

T1 sequence (Q9HC97 whole entry): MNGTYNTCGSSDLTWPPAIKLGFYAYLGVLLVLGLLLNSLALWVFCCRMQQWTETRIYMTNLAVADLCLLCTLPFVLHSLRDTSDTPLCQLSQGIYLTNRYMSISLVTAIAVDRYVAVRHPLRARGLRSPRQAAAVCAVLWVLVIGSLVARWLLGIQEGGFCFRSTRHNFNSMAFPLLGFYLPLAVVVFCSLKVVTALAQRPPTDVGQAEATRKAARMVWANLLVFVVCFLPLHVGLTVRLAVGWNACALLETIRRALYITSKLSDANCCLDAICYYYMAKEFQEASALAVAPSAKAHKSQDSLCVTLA
G protein-coupled receptor GPR35, sequence (Q33BM1 whole entry, the tested form may be a part): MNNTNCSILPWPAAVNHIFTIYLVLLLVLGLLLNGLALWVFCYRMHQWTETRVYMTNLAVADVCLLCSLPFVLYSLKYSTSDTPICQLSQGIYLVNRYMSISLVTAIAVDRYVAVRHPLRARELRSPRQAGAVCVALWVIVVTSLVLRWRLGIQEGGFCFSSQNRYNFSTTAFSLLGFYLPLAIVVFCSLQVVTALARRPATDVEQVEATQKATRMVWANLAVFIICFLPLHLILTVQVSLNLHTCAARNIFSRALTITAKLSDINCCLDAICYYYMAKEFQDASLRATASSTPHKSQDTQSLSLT

SMILES	Activity [1]	EC50 ([1]; read-out: EC50) [nM]	Activity [3]	Activity [4]	Activity [5]	EC50 [6] [nM]	EC50 ([1]; ht-29)	EC50 [7] [nM]	IC50 [2] [nM]
CC(C)C(=O)Nc1cc(Br)ccc1-c1nnn[nH]1	Dose-dependent effect	380	inactive	–	–	–	–	–	280
O=C(Nc1cc(Br)ccc1-c1nnn[nH]1)c1ccco1	Dose-dependent effect	1060	inactive	–	–	–	–	–	440
COc1ccc(C(=O)Nc2ccccc2-c2nn[nH]n2)cc1	Dose-dependent effect	650	inactive	–	–	–	–	–	280
O=C(Nc1cc(Br)ccc1-c1nnn[nH]1)c1cccs1	Dose-dependent effect	510	inactive	–	–	–	–	–	260
COc1ccc(C(=O)Nc2cc(Br)ccc2-c2nnn[nH]2)cc1OC	Dose-dependent effect	830	inactive	–	–	–	–	–	260
CCC(=O)Nc1cc(Br)ccc1-c1nnn[nH]1	Dose-dependent effect	620	inactive	–	–	–	–	–	700
COc1ccc(C(=O)Nc2cc(Br)ccc2-c2nnn[nH]2)c(F)c1	Dose-dependent effect	41	inactive	–	–	–	–	–	14
O=C(Nc1cc(Br)ccc1-c1nnn[nH]1)C1CCCCC1	Dose-dependent effect	440	inactive	–	–	–	–	–	200
Nc1ccc(Br)cc1-c1nnn[nH]1	Dose-dependent effect	44100	inactive	–	–	–	–	–	75300
O=C(Nc1cc(Br)ccc1-c1nnn[nH]1)c1ccc(Cl)cc1Cl	Dose-dependent effect	310	inactive	–	–	–	–	–	110
O=C(Nc1cc(Br)ccc1-c1nnn[nH]1)c1ccc(C(F)(F)F)cc1	Dose-dependent effect	3650	inactive	–	–	–	–	–	1360
COc1ccc(C(=O)Nc2ccc(-c3nnn[nH]3)cc2)cc1	Dose-dependent effect	17600	inactive	–	–	–	–	–	8360
Cc1cccn2c(=O)c(-c3nnn[nH]3)cnc12 [PEMIROLAST]	–	–	–	–	–	95	–	–	–
COc1ccc(C(=O)Nc2ccccc2C#N)cc1	–	–	inactive	–	–	–	Not Active	–	–
COc1ccc(C(=O)Nc2ccc(Br)cc2-c2nnn[nH]2)cc1	Dose-dependent effect	300	inactive	–	–	–	–	–	110
COc1ccc(C(=O)Nc2cc(F)ccc2-c2nnn[nH]2)cc1	Dose-dependent effect	200	inactive	–	–	–	–	–	82
O=C(Nc1cc(Br)ccc1-c1nnn[nH]1)c1ccc(F)cc1F	Dose-dependent effect	130	inactive	inactive	Active	–	–	–	60
O=C1c2ccccc2S(=O)(=O)c2cc(-c3nnn[nH]3)ccc21 [DOXANTRAZOLE]	–	–	–	–	–	–	–	3400	–

The next lines start with results.

Activity [1]	EC50 ([1]; read-out: EC50) [nM]	Activity [3]	Activity [4]	Activity [5]	EC50 [6] [nM]	EC50 ([1]; ht-29)	EC50 [7] [nM]	SMILES	IC50 [2] [nM]
Dose-dependent effect	1940	inactive	–	–	–	–	–	COc1cccc(C(=O)Nc2cc(Br)ccc2-c2nnn[nH]2)c1	810
Dose-dependent effect	2180	inactive	–	–	–	–	–	O=C(Nc1cc(Br)ccc1-c1nnn[nH]1)c1cccc(Cl)c1	480
Dose-dependent effect	860	inactive	–	–	–	–	–	COc1ccccc1C(=O)Nc1cc(Br)ccc1-c1nnn[nH]1	400
Dose-dependent effect	870	inactive	–	–	–	–	–	O=C(Nc1cc(Br)ccc1-c1nnn[nH]1)c1ccccc1	300
Dose-dependent effect	4600	inactive	–	–	–	–	–	O=C(Nc1cc(Br)ccc1-c1nnn[nH]1)c1cccc(C(F)(F)F)c1	1280
Dose-dependent effect	450	inactive	–	–	–	–	–	O=C(Nc1cc(Br)ccc1-c1nnn[nH]1)c1ccc(F)cc1	160
Dose-dependent effect	59	inactive	inactive	Active	–	–	–	COc1ccc(C(=O)Nc2cc(Br)ccc2-c2nnn[nH]2)cc1	26
Dose-dependent effect	1330	inactive	–	–	–	–	–	Cc1ccc(C(=O)Nc2cc(Br)ccc2-c2nnn[nH]2)cc1	510
Dose-dependent effect	350	inactive	–	–	–	–	–	O=C(Nc1cc(Br)ccc1-c1nnn[nH]1)c1ccccc1F	170
Dose-dependent effect	520	inactive	–	–	–	–	–	O=C(Nc1cc(Br)ccc1-c1nnn[nH]1)c1ccc(Cl)cc1	210
Dose-dependent effect	610	inactive	–	–	–	–	–	O=C(Nc1cc(Br)ccc1-c1nnn[nH]1)c1cccc(F)c1	210
Dose-dependent effect	2050	inactive	–	–	–	–	–	Cc1ccccc1C(=O)Nc1cc(Br)ccc1-c1nnn[nH]1	810
Dose-dependent effect	870	inactive	–	–	–	–	–	O=C(Nc1cc(Br)ccc1-c1nnn[nH]1)c1ccccc1Cl	410
Dose-dependent effect	860	inactive	–	–	–	–	–	Cc1cccc(C(=O)Nc2cc(Br)ccc2-c2nnn[nH]2)c1	360
